Reference: US20240245652A1, “METHODS AND COMPOSITIONS FOR MANAGING PAIN COMPRISING DEXMEDETOMIDINE TRANSDERMAL COMPOSITIONS” (Teikoku Pharma USA, Inc., priority 2013, published 2024)
Where two headings read alike, the source gives them in different places.

solubility of dexmedetomidine (in Duro-Tak 87-2979): less than 2% | solubility of dexmedetomidine (in Duro-Tak 387/87-2353): 10-15% | solubility of dexmedetomidine (in hydroxyl functionalized acrylate polymer): less than 1% | solubility of dexmedetomidine (in lauryl lactate): 5 to 10% | solubility of dexmedetomidine (in levulinic acid): ~60% | solubility of dexmedetomidine (in oleic acid): ~40% | solubility of dexmedetomidine (in propylene glycolmonolaurate): 5 to 10%
SMILES: Cc1cccc([C@H](C)c2cnc[nH]2)c1C [dexmedetomidine, Dexmedetomidine]
